{"source": "patent US9981972B2", "about": "“N-hydroxy bicyclic hydantoin carbamates as tools for identification of serine hydrolase targets” (ABIDE THERAPEUTICS, INC., priority 2014, dated 2018)", "key": {"[1]": {"tested_on": "FP-sensitive SHs in the mouse brain membrane proteome", "assay": "Gel-based competitive ABPP in vitro, mouse brain membrane proteome, anti-targets", "type": "biochemical", "method_in_brief": "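Mouse brain membrane proteome (1 mg/mL in DPBS) was treated with compound (0.1-100 μM) for 30 min at 37 °C, then labeled with FP-Rh (2 μM final, 30 min, 25 °C). Bands were resolved by SDS-PAGE and scanned in-gel, with inhibition taken from band optical density versus DMSO. Targets counted as active or anti-targets at ≥50% inhibition.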"}, "[2]": {"tested_on": "other SHs (anti-targets) in mouse tissues", "assay": "Inhibition by gel-based competitive ABPP in vivo, other SHs", "conditions": "4 h", "experimental": "(§1) In this assay, test compounds were administered to mice. Mice were sacrificed, and their tissues harvested, homogenized, and the soluble fractions isolated, reacted with FP-Rh, and separated by SDS-PAGE as described above.\n(§2) Protocol Summary: Purpose-bred 3-4 month old male C57BL6 laboratory mice were i.p. administered test compound (0.5-50 mg/kg in 18:1:1 saline:PEG-40-castor oil:EtOH vehicle solution, 10 μL/g mouse weight) or vehicle only. After 4 hours, mice were humanely sacrificed (anesthetized with isoflurane followed by cervical dislocation), and tissues (liver, kidney, brain) removed and snap frozen in liquid nitrogen before processing. Tissues were homogenized, and soluble proteome isolated by ultracentrifugation (100 k×g, 45 minutes) and protein concentration adjusted to 1 mg/mL in DPBS. An aliquot (50 μL) was reacted with FP-Rh (2 μM final concentration) for 30 minutes at 25° C. Reactions were quenched with 16 μL 4×SDS-PAGE loading buffer (reducing), separated by SDS-PAGE, and visualized by in-gel fluorescent scanning. The percentage activity remaining was determined by measuring the integrated optical density of test compound bands relative to vehicle bands. Note: Due to the overlapping nature of LYPLA1 and LYPLA2 bands, the proteins were quantified together.\n(§3) The in vivo inhibitory activity of Compound 1 was assessed. For this experiment, mice were administered test compound (0.5-50 mg/kg, i.p.) or vehicle only. After four hours mice were sacrificed and their tissues removed, homogenized, and the soluble fractions isolated and labeled with FP-Rh followed by SDS-PAGE and fluorescent detection of FP-labeled SHs (see FIG. 3B).\n(§4) Compound 26, Compound 34, and Compound 1 were administered across a dose range of 1-40 mg/kg to C57BL6 mice by intraperitoneal injection, and, after 4 hours, animals were sacrificed and tissues harvested for analysis by gel-based ABPP using the FP-Rh probe and the Compound 39 probe."}, "[3]": {"tested_on": "HeLa cells", "assay": "Analysis of cytotoxicity (WST-1)", "type": "cell-based, human", "experimental": "Assay Overview: The purpose of this assay was to determine cytotoxicity of powder samples of test compounds. In this assay, HeLa cells in either serum-free medium or medium containing fetal calf serum (FCS) were incubated with test compounds, followed by determination of cell viability. The assay utilized the WST-1 substrate, which was converted into colorimetric formazan dye by the metabolic activity of viable cells. The amount of formed formazan directly correlated to the number of metabolically active cells in the culture.\nProtocol Summary: This assay was started by seeding HeLa cells in DMEM medium supplemented with 10% FCS and 1× Pen-Strep-Glutamine in a 96-well plate. Cells were incubated at 37° C. in a humidified incubator until 80% confluent (24 hours). Medium was removed, and 100 μL of fresh medium (serum-free or supplemented with 10% FCS), pre-mixed with DMSO or test compound, was added to each well. Cells were incubated for 48 hours at 37° C. in a humidified incubator and cell viability was determined by the WST-1 assay (Roche) according to manufacturer instructions. CC50 values were determined from dose-response curves from three replicates at each inhibitor concentration (10, 100, 1000, 10000, 100000 nM), compared to six replicates of cells treated with DMSO only."}, "[4]": {"tested_on": "LYPLA1/2", "assay": "Inhibition by gel-based competitive ABPP in vivo (FP-Rh probe)", "set-up": "species or system mouse", "experimental": "as §1, §2, §3, §4"}}, "note": "“Also recorded” adds a separate entry of the source."}
{"compound": "O=C(ON1C(=O)C2CN(Cc3ccc(Oc4ccccc4)cc3)CCN2C1=O)N1CCC(c2ccccc2)CC1", "note": "(centres unmarked) [Compound 38, 1,3-dioxo-7-(4-phenoxybenzyl)hexahydroimidazo[1,5-a]pyrazin-2(3H)-yl 4-phenylpiperidine-1-carboxylate]", "values": [{"measurement": "concentration-dependent profiling, ABHD3 and ABHD4", "setting": "[1]; mouse brain membrane SHs, FIG. 7B", "result": "promising lead inhibitor for ABHD3 and ABHD4"}]}
{"compound": "O=C(ON1C(=O)C2CN(C(=O)N3CCOCC3)CCN2C1=O)N1CCC(CCc2ccc(Cl)cc2)CC1", "note": "(centres unmarked) [Compound 1, 7-(morpholine-4-carbonyl)-1,3-dioxohexahydroimidazo[1,5-a]pyrazin-2(3H)-yl 4-(4-chloro-phenethyl)piperidine-1-carboxylate]", "values": [{"measurement": "anti-target inhibition in vivo", "setting": "[2]; 0.5-50 mg/kg i.p., any tissue, ABHD6 not visible", "result": "no significant anti-target inhibition"}, {"measurement": "cross-reactivity with other SHs in vivo", "setting": "[2]; 1-40 mg/kg i.p.", "result": "limited cross-reactivity with other SHs"}, {"measurement": "Anti-target(s) 1 μM", "setting": "[1]; SHs with at least 50% inhibition at 1 μM compound", "result": "ABHD6"}, {"measurement": "Anti-target(s) 10 μM", "setting": "[1]; SHs with at least 50% inhibition at 10 μM compound", "result": "FAAH,; also recorded: ABHD6"}, {"measurement": "Anti-target(s) 100 μM", "setting": "[1]; SHs with at least 50% inhibition at 100 μM compound", "result": "FAAH,; also recorded: ABHD12,; also recorded: MAGL,; also recorded: ABHD6"}, {"measurement": "cytotoxicity", "setting": "[3]; HeLa, 48 h, serum-free and serum-supplemented medium, up to 100 μM", "result": "did not show evidence of cytotoxicity"}, {"measurement": "dosing window (CC50 limit 10 μM versus in situ IC50)", "setting": "[3]; based on in situ IC50 values of 87/143 nM", "result": "~70", "unit": "fold"}, {"measurement": "blockade of LYPLA1 and LYPLA2 in vivo", "setting": "[4]; 5 mg/kg i.p., 4 h, FP-Rh probe", "result": "near-complete blockade of LYPLA1 and LYPLA2 in peripheral (e.g., liver, kidney), but not central (brain) tissues"}, {"measurement": "mLYPLA1/2 (in vivo), % @ 5 mg/kg (liver and kidney)", "setting": "[4]; 5 mg/kg, liver and kidney, mouse", "result": 100, "unit": "% @"}, {"measurement": "inhibition of LYPLA1/2 in liver and kidney", "setting": "[4]; 0.5-50 mg/kg i.p., 4 h, liver and kidney", "result": "~90", "unit": "%"}, {"measurement": "inhibition of LYPLA1/2 in the brain", "setting": "[4]; highest dose 50 mg/kg i.p., 4 h, brain", "result": "~75", "unit": "%"}]}
{"compound": "COc1ccc(N2CCN(C(=O)ON3C(=O)C4CN(CC5CCN(Cc6ccccc6)CC5)CCN4C3=O)CC2)cc1", "note": "(centres unmarked) [Compound 26, 7-((1-benzylpiperidin-4-yl)methyl)-1,3-dioxohexahydroimidazo[1,5-a]pyrazin-2(3H)-yl 4-(4-methoxyphenyl)piperazine-1-carboxylate]", "values": [{"measurement": "inhibition of other SHs in vivo", "setting": "[2]; 1-40 mg/kg i.p., brain and testis, FP-Rh or Compound 39 probe", "result": "did not inhibit other SHs"}, {"measurement": "mLYPLA1/2 (in vivo), % @ 40 mg/kg (testis)", "setting": "[4]; 40 mg/kg, testis, mouse", "result": 0, "unit": "% @"}]}
